Source: doi:10.1101/2023.10.25.564053v1 (biorxiv, 2023)

Legend:
GsAK = GsAK (Geobacillus stearothermophilus, UniProt P27142); experiment: microscale thermophoresis, amine-labelled protein; format: binding
BsAK = BsAK (Bacillus subtilis, UniProt P16304); experiment: microscale thermophoresis, amine-labelled protein; format: binding
Sequence of BsAK (P16304 whole entry): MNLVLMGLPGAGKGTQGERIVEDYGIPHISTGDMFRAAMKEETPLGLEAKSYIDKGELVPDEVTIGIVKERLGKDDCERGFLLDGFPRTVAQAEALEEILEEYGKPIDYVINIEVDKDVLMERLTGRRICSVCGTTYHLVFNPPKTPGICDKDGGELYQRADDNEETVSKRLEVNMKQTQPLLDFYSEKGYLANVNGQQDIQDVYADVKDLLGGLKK

Sequence of GsAK (P27142 whole entry): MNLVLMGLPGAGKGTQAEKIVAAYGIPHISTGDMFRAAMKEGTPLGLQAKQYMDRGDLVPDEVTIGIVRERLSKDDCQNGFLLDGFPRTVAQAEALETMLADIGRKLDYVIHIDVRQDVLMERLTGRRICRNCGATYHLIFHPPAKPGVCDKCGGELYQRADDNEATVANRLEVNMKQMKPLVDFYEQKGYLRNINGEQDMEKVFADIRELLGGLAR

## Nc1ncnc2c1ncn2[C@@H]1O[C@H](COP(=O)(O)OP(=O)(O)OP(=O)(O)OP(=O)(O)OP(=O)(O)OC[C@H]2O[C@@H](n3cnc4c(N)ncnc43)[C@H](O)[C@@H]2O)[C@@H](O)[C@H]1O [Ap5A]
GsAK
  Kd: 0.017 ± 0.0057 µM
BsAK
  Kd: 0.0251 ± 0.0011 µM
